Results as given in PMC3502156, “Anti-plasmodial action of de novo-designed, cationic, lysine-branched, amphipathic, helical peptides” (Malaria Journal, 2012).
Several values for one entry are separate records, joined by “and”; a condition that tells them apart may be missing. Equal entries are not always repeated. Where two headings read alike, the source gives them in different places. Starred links: 1 amine or outer side, 2 acyl side, 3 side chain; linkers in the order of their positions; H or OH if unused. Positions of bridges follow the written chain, without caps; N, C: chain ends. Non-standard residues stand in square brackets, D forms with d. Residues, ends and D or L forms follow the SMILES beside them. Chains are numbered I, II in the order given. X1 = O=C(/C(=C/c1ccccc1)N[*:1])[*:2]

Experiments:
[1] = test system: P. falciparum 3D7 (chloroquine-sensitive); assay: microbe, parasite or virus in culture; type: cell-based, Plasmodium falciparum
Experimental: (§1) Chloroquine-sensitive (3D7) and CQ-resistant (Dd2 and INDO) strains of P. falciparum were maintained in continuous culture according to the method of Trager and Jensen with minor modifications. Cultures were maintained in fresh group O^+ve human erythrocytes suspended at 4% haematocrit in complete medium {16.2 g/L RPMI 1640 containing 25 mM HEPES, 11.11 mM glucose (Gibco), 0.2% sodium bicarbonate (Sigma), 0.5% Albumax I (Gibco), 45 μg/litre hypoxanthine (Sigma) and 50 μg/litre gentamicin (Gibco)} and incubated at 37°C under a gas mixture 5% O2, 5% CO2, and 90% N2. Every day, the spent medium was replaced by fresh complete medium to propagate the culture. […] Parasitaemia was monitored by microscopic examination of Giemsa-stained blood smears. Synchronized ring stage parasite was obtained by 5% sorbitol treatment. Trophozoites and schizont-stage parasites were enriched by using Percoll gradient.
(§2) Stock solutions of peptides and CQ were prepared in water (milli-Q grade) while artemisinin stock solution was in dimethyl sulphoxide (DMSO). All stocks were then diluted with culture medium to achieve the required drug concentrations. The concentration of peptide solution in water was based on A280 [ϵ (M^-1 cm^-1) ΔF (didehydrophenylalanine) 19,000, W (Tryptophan) 5,000)]. Thus ϵ280 were 62,000, 124,000, 124,000 and 248,000 for ΔFm, (ΔFm)2, ΔFd and ΔFq respectively. The concentration of FITC-peptides was based on A495 [ϵ(M^-1 cm^-1) FITC 77,000 for (ΔFm)2 with one FITC and 154,000 for ΔFd with two FITC per molecule]. Drugs and peptides solutions were placed in 96-well flat bottom tissue culture grade plates (Corning).
(§3) For drug screening, SYBR green I based fluorescence assay was used as described previously by Smilkstein et al.[30]. Sorbitol synchronized ring stage parasites (haematocrit: 2%, parasitaemia: 1%, 100 μl) under normal culture conditions were incubated in the absence or presence of increasing concentrations of peptides in water. CQ and artemisinin were used as positive controls. […] After 48 hr of incubation 100 μl of SYBR Green I buffer [0.2 μl of 10,000 X SYBR Green I (Invitrogen) per ml of lysis buffer {Tris (20 mM; pH 7.5), EDTA (5 mM), saponin (0.008%; wt/vol), and Triton X-100 (0.08%; vol/vol)}] was added to each well, mixed twice gently with multi-channel pipette and incubated in dark at 37 °C for 1 h. Fluorescence was measured with a Victor fluorescence multi-well plate reader (Perkin Elmer) with excitation and emission wavelength centred at 485 and 530 nm, respectively. Fluorescence counts for CQ (0.1 μM for 3D7, 1 μM for INDO) were subtracted from counts in each well. The fluorescence counts were plotted against the drug concentration and IC50 (the 50% inhibitory concentration) was determined by analysis of dose–response curves. Results of the above mentioned fluorescence-based assay were validated microscopically by examination of Giemsa-stained smears of peptide-treated parasite cultures. Statistical significance of relative potencies of peptides was determined by student’s T test.

[2] = test system: P. falciparum Dd2 (CQ-resistant); assay: microbe, parasite or virus in culture; type: cell-based, Plasmodium falciparum
Experimental: as §1, §2, §3

[3] = test system: P. falciparum 3D7 (chloroquine-sensitive); assay: microbe, parasite or virus in culture; type: cell-based, Plasmodium falciparum; remark: listed apart in the source
[4] = test system: P. falciparum 3D7 trophozoites; assay: Immunofluorescence staining of MSP3 in ΔFd treated trophozoite cultures; type: cell-based, Plasmodium falciparum; details: ΔFd 2.5 μM, 37°C, 6 hr; three independent observations
Experimental: Immunohistochemical Fluorescence staining of MSP3 in ∆Fd treated Trophozoite and Schizont cultures.
To probe mechanistic details of ∆Fd-mediated, premature parasite egress, P. falciparum 3D7 culture (2%
parasitaemia, 2% haematocrit) was incubated without (control) or with ∆Fd (2.5 µM) at 37°C for 6 hr in a final
volume of 100 µl made with RPMI (96 µl RPMI + 4 µl peptide solution). Smears were processed as follows: (a)
flooded with 2% BSA/PBS (1 hr, 37°C), (b) PBS washed and (c) flooded (1 hr, 370C) with polyclonal anti-MSP3
antibody produced in mouse (1: 100 dilution in 1% BSA/PBS), (d) PBS washed and (e) flooded with alexa fluor 488
labelled anti-mouse antibody (Sigma) (1: 500 dilution in 1% BSA/PBS, 1 hr, 370C in dark), (e) PBS washed and (f)
flooded with DAPI (4, 6-diamidino-2-phenylindole) (invitrogen) (500 ng/ml, 10 min, 370 C). After a final PBS wash
the smears were observed under Nikon eclipse fluorescence microscope using appropriate filters.

proteases = details: branched dimer compared with linear dimer (ΔFm)2; cited from earlier work
Excerpt: Some important features of these peptides as drugs against malaria include their favourable resistance indices (Table 1) that allow them to rapidly kill both drug-sensitive and drug-resistant strains of malaria parasite with equal potencies, their amphipathic nature that gives them drug-like character, and their ability to permeabilize and penetrate biological membranes, which allows them to attack target cells both from the surface as well as intracellularly. In addition, the presence of the conformationally constrained, non-protein, amino acid didehydrophenylalanine in both ΔFd and (ΔFm)2 pr ...

[5] = test system: uninfected erythrocytes (URBC); assay: Haemolysis assay, uninfected red cells; type: cell-based, human
Experimental: (§4) Selectivity of haemolysis by peptides for infected erythrocytes (PRBC) vs uninfected erythrocytes (URBC) was examined by incubating the test molecules with URBCs and PRBCs respectively in phosphate-buffered saline (PBS). Briefly, fresh RBCs were spin washed (1600 RPM; 5 min) three times in PBS and re-suspended in PBS at 2% haematocrit. A 100 μl suspension was added to 96-well plate containing the peptides at different concentrations. […] After incubation at 37°C for 3 hr, the samples were centrifuged and supernatant was used to determine the haemolytic activity measured in terms of haemoglobin release as monitored by […]. Triton-treated control samples were diluted 10-fold before reading absorbance. […] Percent haemolysis has been expressed with reference to 100% haemolysis value assigned to positive control (triton X 100 treated RBCs). To study haemolytic susceptibility of parasitized cells, URBCs were replaced with varying percentages (10% and 20%) of mixed stage parasitized cells. […] Haemolysis of parasitized erythrocytes was also monitored microscopically by examining the Giemsa-stained smears. Parasitaemia of ΔFd treated and untreated cultures were microscopically counted for ring, trophozoite and schizont stages respectively. Susceptibility of different stages was compared with corresponding untreated control cultures.

[6] = test system: infected erythrocytes (PRBC); assay: Haemolysis assay, parasitized red cells; type: cell-based, Plasmodium falciparum
Experimental: as §4

HeLa cells = type: cell-based; details: 48 h
Experimental: The cytotoxic effects of ΔFd on mammalian cells was assessed by functional assay as described using HeLa cells cultured in RPMI containing 10% fetal bovine serum, 0.21% sodium bicarbonate (Sigma) and 50 μg/mL gentamycin (complete medium). Briefly, cells (10^4 cells/200 μl/well) were seeded into 96-well flat-bottom tissue culture plates in complete medium. […] DMSO (as positive inhibitor) was added at 10%. Twenty microlitres of a stock solution of MTT (5 mg/mL in 1X phosphate buffered saline) was added to each well, gently mixed and incubated for another 4 hr. After spinning the plate at 1500 rpm for 5 min, supernatant was removed and 100 μl of DMSO (stop agent) was added. Formation of formazon was read on a microtiter plate reader (Versa max tunable multi-well plate reader) at 570 nm. The 50% cytotoxic concentration (TC50) of drug was determined by analysis of dose–response curves.

[7] = test system: Plasmodium-infected RBCs (PRBC); assay: Fluorescence microscopy of FITC-peptide localization; type: cell-based, Plasmodium falciparum; details: 2-3 μM, 30 min, 37°C, complete medium
Experimental: For studying peptide localization, P. falciparum cultures were individually incubated with FITC-ΔFd (2 μM), FITC-(ΔFm)2 (2 μM) or FITC-Insulin (3 μM) a) alone and b) together with DAPI in complete medium at 37°C for 30 min and the cells were spin washed (1,600 RPM, 5 min) twice with 1 X PBS to reduce background fluorescence. The cells were smeared on a glass slide, and fluorescence was visualized by using the respective filter settings for FITC and DAPI.
For studying the selectivity and route of transport of ΔFd into the red cell-resident malaria parasite, URBC and PRBC were incubated with FITC-ΔFd (4 μM) in parallel sets at 4°C vs at room temperature (25°C) for specified times and spin washed (1,600 RPM, 2 min) with complete medium (3 X 200 μl). The cells were smeared on a glass slide and both bright field images and fluorescence images (using FITC filter) were captured at 100 X magnification using Nikon eclipse fluorescence microscope. The software Adobe Photoshop was used to overlay the fluorescence image on the bright field image.

CC(=O)NCC(=O)N/C(=C\c1ccccc1)C(=O)N[C@@H](CCCNC(=N)N)C(=O)N[C@@H](CCCCN)C(=O)N/C(=C\c1ccccc1)C(=O)N[C@@H](Cc1c[nH]cn1)C(=O)N[C@@H](CCCCN)C(=O)N/C(=C\c1ccccc1)C(=O)N[C@@H](Cc1c[nH]c2ccccc12)C(=O)N[C@@H](C)C(=O)NCCCC[C@H](NC(=O)[C@H](C)NC(=O)[C@H](Cc1c[nH]c2ccccc12)NC(=O)/C(=C/c1ccccc1)NC(=O)[C@H](CCCCN)NC(=O)[C@H](Cc1c[nH]cn1)NC(=O)/C(=C/c1ccccc1)NC(=O)[C@H](CCCCN)NC(=O)[C@H](CCCNC(=N)N)NC(=O)/C(=C/c1ccccc1)NC(=O)CNC(C)=O)C(N)=O [ΔFd] (I: Ac-G[X1]RK[X1]HK[X1]WAK-NH2 / II: Ac-G[X1]RK[X1]HK[X1]WA; amide I:11-II:C; N-terminus and C-terminus assumed)
IC50 ([1]; 3D7 (chloroquine-sensitive, 48 h)): 1.39 ± 0.1 µM
IC50 ([2]; Dd2 (CQ-resistant, 48 h)): 1.6 ± 0.09 µM
Resistance index IC50 Dd2/ IC50 3D7 ([2]; IC50 CQ resistant strain/ IC50 CQ sensitive strain): 1.1 and ~ 1
increment in potency at 96 hr (two cycles) vs 48 hr (one cycle) ([3]; P. falciparum 3D7, SYBR Green assay): 1.1 fold
IC70 ([3]; P. falciparum 3D7, dose used on trophozoite and schizont cultures): 2.5 µM
anomalously egressed trophozoites with MSP3 staining [4]: ~ 40%
stability against proteases (proteases): more stable against proteases
HC50 URBC ([5]; 3 h): > 50 µM
Hemolytic Selectivity index (HC50 URBC/ IC50 Pf 3D7) ([5]; 3 h): > 35
percentage haemolysis, mixed culture 10% parasitaemia ([6]; 3 h): 7%
percentage haemolysis, mixed culture 20% parasitaemia ([6]; 3 h): 16%
TC50 HeLa cells (HeLa cells): > 25 µM

FITC-insulin: FITC-Insulin (Sigma), control for uptake
uptake of FITC-labelled peptide by parasitized cells [7]: no accumulation

Insulin: bovine insulin (Sigma), control peptide [reference compound]
IC50 ([1]; ring stage synchronized, haematocrit 2%, parasitaemia 1%, 48 hr, SYBR Green I fluorescence, ± SD of three independent observations, read-out: IC50 P. falciparum 3D7): > 40 µM
HC50 URBC ([5]; 2% haematocrit in PBS, 37°C, 3 hr, haemoglobin release A415, 100% = 0.4% Triton X-100, ± SD of three independent observations): > 40 µM
haemolysis of infected red cells by control peptides ([6]; up to 40 μM, 3 hr, A415): not to show any haemolysis
